Source: patent publication US8354403B2, “Pyrrolidine derived beta 3 adrenergic receptor agonists” (Merck Sharp & Dohme Corp., priority 2009, dated 2013)

Target: T1, human β3 adrenergic receptor (Homo sapiens, UniProt P13945)
T1 construct: expressed in transfected cells; host or cells: Chinese hamster ovary (CHO) cells, stably transfected
Test: Beta-3 agonist in vitro functional assay: cAMP production (LANCE TR-FRET) in CHO cells stably transfected with the cloned β3 receptor
Type: cell-based
Settings: Table 5; cAMP, CHO cells; read-out: Human β3 agonist functional activity
Method in brief: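 CHO cells stably expressing the cloned receptor, in HEPES-buffered HBSS with BSA and 0.6 mM IBMX, 6,000 cells/well, exposed to compound for 30 min at RT. cAMP read by LANCE TR-FRET against a cAMP standard curve. Isoproterenol defines maximal stimulation.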

T1 sequence (P13945 whole entry): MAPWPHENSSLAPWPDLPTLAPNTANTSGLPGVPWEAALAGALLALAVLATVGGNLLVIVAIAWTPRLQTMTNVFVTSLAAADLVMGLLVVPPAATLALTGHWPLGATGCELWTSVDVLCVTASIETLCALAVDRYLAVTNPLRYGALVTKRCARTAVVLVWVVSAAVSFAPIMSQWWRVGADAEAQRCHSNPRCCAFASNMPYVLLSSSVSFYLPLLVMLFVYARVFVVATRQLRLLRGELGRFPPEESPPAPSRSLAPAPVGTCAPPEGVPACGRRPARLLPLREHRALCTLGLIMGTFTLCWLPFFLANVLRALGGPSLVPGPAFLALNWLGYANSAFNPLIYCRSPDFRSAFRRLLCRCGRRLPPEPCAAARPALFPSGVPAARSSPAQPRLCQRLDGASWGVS

O=C(c1ccc(C[C@@H]2CC[C@H]([C@H](O)c3ccccc3)N2)cc1)N1CCC(c2nc(-c3cnccn3)no2)CC1 [Example 83]
EC50: 100 to 999 nM

O=C(c1ccc(C[C@@H]2CC[C@H]([C@H](O)c3ccccc3)N2)cc1)N1CCC(n2cc(-c3ccccc3)[nH]c2=O)CC1 [Example 84]
EC50: 10 to 99.9 nM

O=C(c1ccc(C[C@@H]2CC[C@H]([C@H](O)c3cccnc3)N2)cc1)N1CCC(n2cc(-c3ccccc3)[nH]c2=O)CC1 [Example 85]
EC50: 10 to 99.9 nM

Cc1cncn1C1CCN(C(=O)c2ccc(C[C@@H]3CC[C@H]([C@H](O)c4ccccc4)N3)cc2)CC1 [Example 86]
EC50: 100 to 999 nM

Cc1cncn1C1CCN(C(=O)c2ccc(C[C@@H]3CC[C@H]([C@H](O)c4cccnc4)N3)cc2)CC1 [Example 87]
EC50: 100 to 999 nM

COC(=O)c1csc(C2CCN(C(=O)c3ccc(C[C@@H]4CC[C@H]([C@H](O)c5ccccc5)N4)cc3)CC2)n1 [Example 88]
EC50: 10 to 99.9 nM

Cc1nc(C2CCN(C(=O)c3ccc(C[C@@H]4CC[C@H]([C@H](O)c5ccccc5)N4)cc3)CC2)ns1 [Example 89]
EC50: 100 to 999 nM

O=C(c1ccc(C[C@@H]2CC[C@H]([C@H](O)c3ccccc3)N2)cc1)N1CCC(n2cnnc2)CC1 [Example 91]
EC50: 100 to 999 nM

O=C(c1ccc(C[C@@H]2CC[C@H]([C@H](O)c3ccccc3)N2)cc1)N1CCC(n2cncn2)CC1 [Example 92]
EC50: 10 to 99.9 nM

O=C(c1ccc(C[C@@H]2CC[C@H]([C@H](O)c3cccnc3)N2)cc1)N1CCC(n2nccn2)CC1 [Example 94]
EC50: 100 to 999 nM

Cc1cn(C2CCN(C(=O)c3ccc(C[C@@H]4CC[C@H]([C@H](O)c5ccccc5)N4)cc3)CC2)nn1 [Example 95]
EC50: 10 to 99.9 nM

Cc1cnnn1C1CCN(C(=O)c2ccc(C[C@@H]3CC[C@H]([C@H](O)c4ccccc4)N3)cc2)CC1 [Example 96]
EC50: 100 to 999 nM

Cn1cc(C2CCN(C(=O)c3ccc(C[C@@H]4CC[C@H]([C@H](O)c5ccccc5)N4)cc3)CC2)nn1 [Example 97]
EC50: 100 to 999 nM

Cn1cnnc1C1CCN(C(=O)c2ccc(C[C@@H]3CC[C@H]([C@H](O)c4ccccc4)N3)cc2)CC1 [Example 98]
EC50: 100 to 999 nM

Nc1nnc(C2CCN(C(=O)c3ccc(C[C@@H]4CC[C@H]([C@H](O)c5ccccc5)N4)cc3)CC2)o1 [Example 99]
EC50: 10 to 99.9 nM

O=C(c1ccc(C[C@@H]2CC[C@H]([C@H](O)c3ccccc3)N2)cc1)N1CCC(n2cnnn2)CC1 [Example 100]
EC50: 10 to 99.9 nM

Cc1nnnn1C1CCN(C(=O)c2ccc(C[C@@H]3CC[C@H]([C@H](O)c4ccccc4)N3)cc2)CC1 [Example 101]
EC50: 1 to 9.9 nM

O=C(c1ccc(C[C@@H]2CC[C@H]([C@H](O)c3ccccc3)N2)cc1)N1CCC(n2ncnn2)CC1 [Example 102]
EC50: 1 to 9.9 nM

Cc1nnn(C2CCN(C(=O)c3ccc(C[C@@H]4CC[C@H]([C@H](O)c5ccccc5)N4)cc3)CC2)n1 [Example 104]
EC50: 100 to 999 nM

O=C(c1ccc(C[C@@H]2CC[C@H]([C@H](O)c3ccccc3)N2)cc1)N1CCC(c2nn[nH]n2)CC1 [Example 105]
EC50: 10 to 99.9 nM

Cn1nnc(C2CCN(C(=O)c3ccc(C[C@@H]4CC[C@H]([C@H](O)c5ccccc5)N4)cc3)CC2)n1 [Example 106]
EC50: 10 to 99.9 nM

Cn1nnnc1C1CCN(C(=O)c2ccc(C[C@@H]3CC[C@H]([C@H](O)c4ccccc4)N3)cc2)CC1 [Example 108]
EC50: 1 to 9.9 nM

CC(C)n1nnnc1C1CCN(C(=O)c2ccc(C[C@@H]3CC[C@H]([C@H](O)c4ccccc4)N3)cc2)CC1 [Example 109]
EC50: 1 to 9.9 nM

O=C(c1ccc(C[C@@H]2CC[C@H]([C@H](O)c3ccccc3)N2)cc1)N1CCC(c2nnnn2C2CC2)CC1 [Example 110]
EC50: < 1 nM

COC(=O)c1ccccc1C1CCN(C(=O)c2ccc(C[C@@H]3CC[C@H]([C@H](O)c4ccccc4)N3)cc2)CC1 [Example 111]
EC50: 10 to 99.9 nM

O=C(c1ccc(C[C@@H]2CC[C@H]([C@H](O)c3ccccc3)N2)cc1)N1CCC(c2cccc(F)n2)CC1 [Example 112]
EC50: 10 to 99.9 nM

O=C(c1ccc(C[C@@H]2CC[C@H]([C@H](O)c3cccnc3)N2)cc1)N1CCC(c2cccc(F)n2)CC1 [Example 113]
EC50: 10 to 99.9 nM

O=C(c1ccc(C[C@@H]2CC[C@H]([C@H](O)c3ccccc3)N2)cc1)N1CCC(c2ncccn2)CC1 [Example 114]
EC50: 100 to 999 nM

COc1cc(OC)nc(C2CCN(C(=O)c3ccc(C[C@@H]4CC[C@H]([C@H](O)c5ccccc5)N4)cc3)CC2)n1 [Example 115]
EC50: 100 to 999 nM

NC(=O)C1CCN(C(=O)c2ccc(C[C@@H]3CC[C@H]([C@H](O)c4ccccc4)N3)cc2)CC1 [Example 116]
EC50: 100 to 999 nM

O=C(O)C1CCN(C(=O)c2ccc(C[C@@H]3CC[C@H]([C@H](O)c4ccccc4)N3)cc2)CC1 [Example 117]
EC50: 100 to 999 nM

CCOC(=O)C1CCN(C(=O)c2ccc(C[C@@H]3CC[C@H]([C@H](O)c4ccccc4)N3)cc2)CC1 [Example 118]
EC50: 10 to 99.9 nM

O=C(OCc1ccccc1)C1CCN(C(=O)c2ccc(C[C@@H]3CC[C@H]([C@H](O)c4ccccc4)N3)cc2)CC1 [Example 119]
EC50: 10 to 99.9 nM

O=C(c1ncco1)C1CCN(C(=O)c2ccc(C[C@@H]3CC[C@H]([C@H](O)c4ccccc4)N3)cc2)CC1 [Example 120]
EC50: 10 to 99.9 nM

O=C(c1ncc(-c2cccc(F)n2)o1)C1CCN(C(=O)c2ccc(C[C@@H]3CC[C@H]([C@H](O)c4ccccc4)N3)cc2)CC1 [Example 121]
EC50: 1 to 9.9 nM

CS(=O)(=O)C1CCN(C(=O)c2ccc(C[C@@H]3CC[C@H]([C@H](O)c4ccccc4)N3)cc2)CC1 [Example 122]
EC50: 10 to 99.9 nM

CS(=O)(=O)C1CCN(C(=O)c2ccc(C[C@@H]3CC[C@H]([C@H](O)c4cccnc4)N3)cc2)CC1 [Example 123]
EC50: 100 to 999 nM

CCS(=O)(=O)C1CCN(C(=O)c2ccc(C[C@@H]3CC[C@H]([C@H](O)c4ccccc4)N3)cc2)CC1 [Example 124]
EC50: 1 to 9.9 nM

O=C(c1ccc(C[C@@H]2CC[C@H]([C@H](O)c3ccccc3)N2)cc1)N1CCC(S(=O)(=O)CC(F)(F)F)CC1 [Example 125]
EC50: 10 to 99.9 nM

O=C(c1ccc(C[C@@H]2CC[C@H]([C@H](O)c3ccccc3)N2)cc1)N1CCC(S(=O)(=O)C2CCCC2)CC1 [Example 126]
EC50: 10 to 99.9 nM

O=C(c1ccc(C[C@@H]2CC[C@H]([C@H](O)c3ccccc3)N2)cc1)N1CCC(S(=O)(=O)c2ccccc2)CC1 [Example 127]
EC50: 10 to 99.9 nM

O=C(c1ccc(C[C@@H]2CC[C@H]([C@H](O)c3ccccc3)N2)cc1)N1CCC(S(=O)(=O)c2ccc(F)cc2)CC1 [Example 128]
EC50: 10 to 99.9 nM

O=C(c1ccc(C[C@@H]2CC[C@H]([C@H](O)c3cccnc3)N2)cc1)N1CCC(S(=O)(=O)c2ccc(F)cc2)CC1 [Example 129]
EC50: 100 to 999 nM

O=C(c1ccc(C[C@@H]2CC[C@H]([C@H](O)c3ccccc3)N2)cc1)N1CCC(S(=O)(=O)c2cccc(F)c2)CC1 [Example 130]
EC50: 1 to 9.9 nM

O=C(c1ccc(C[C@@H]2CC[C@H]([C@H](O)c3cccnc3)N2)cc1)N1CCC(S(=O)(=O)c2cccc(F)c2)CC1 [Example 131]
EC50: 100 to 999 nM

O=C(c1ccc(C[C@@H]2CC[C@H]([C@H](O)c3ccccc3)N2)cc1)N1CCC(S(=O)(=O)c2ccccc2F)CC1 [Example 132]
EC50: 1 to 9.9 nM

O=C(c1ccc(C[C@@H]2CC[C@H]([C@H](O)c3cccnc3)N2)cc1)N1CCC(S(=O)(=O)c2ccccc2F)CC1 [Example 133]
EC50: 10 to 99.9 nM

Cc1ccc(S(=O)(=O)C2CCN(C(=O)c3ccc(C[C@@H]4CC[C@H]([C@H](O)c5cccnc5)N4)cc3)CC2)cc1 [Example 135]
EC50: 100 to 999 nM

O=C(c1ccc(C[C@@H]2CC[C@H]([C@H](O)c3ccccc3)N2)cc1)N1CCC(S(=O)(=O)c2ccc(Cl)cc2)CC1 [Example 136]
EC50: 10 to 99.9 nM

N#Cc1ccc(S(=O)(=O)C2CCN(C(=O)c3ccc(C[C@@H]4CC[C@H]([C@H](O)c5ccccc5)N4)cc3)CC2)cc1 [Example 137]
EC50: 10 to 99.9 nM

O=C(c1ccc(C[C@@H]2CC[C@H]([C@H](O)c3ccccc3)N2)cc1)N1CCC(S(=O)(=O)c2ccc(F)c(F)c2)CC1 [Example 138]
EC50: 10 to 99.9 nM

O=C(c1ccc(C[C@@H]2CC[C@H]([C@H](O)c3ccccc3)N2)cc1)N1CCC(S(=O)(=O)c2ccc(F)cc2F)CC1 [Example 139]
EC50: 10 to 99.9 nM

O=C(c1ccc(C[C@@H]2CC[C@H]([C@H](O)c3ccccc3)N2)cc1)N1CCC(S(=O)(=O)c2cc(F)ccc2F)CC1 [Example 140]
EC50: 10 to 99.9 nM

O=C(c1ccc(C[C@@H]2CC[C@H]([C@H](O)c3ccccc3)N2)cc1)N1CCC(S(=O)(=O)O)CC1 [Example 141]
EC50: 10 to 99.9 nM

O=C(c1ccc(C[C@@H]2CC[C@H]([C@H](O)c3ccccc3)N2)cc1)N1CCC(Cn2ccnc2)CC1 [Example 142]
EC50: 100 to 999 nM

O=C(c1ccc(C[C@@H]2CC[C@H]([C@H](O)c3ccccc3)N2)cc1)N1CCC(Cn2cccn2)CC1 [Example 143]
EC50: 10 to 99.9 nM

O=C(c1ccc(C[C@@H]2CC[C@H]([C@H](O)c3ccccc3)N2)cc1)N1CCC(Cc2ccccc2F)CC1 [Example 144]
EC50: 10 to 99.9 nM

O=C(c1ccc(C[C@@H]2CC[C@H]([C@H](O)c3ccccc3)N2)cc1)N1CCC(Cc2ccc(F)cc2)CC1 [Example 145]
EC50: 10 to 99.9 nM

COc1ccc(CC2CCN(C(=O)c3ccc(C[C@@H]4CC[C@H]([C@H](O)c5ccccc5)N4)cc3)CC2)cc1F [Example 147]
EC50: 10 to 99.9 nM

O=C(c1ccc(C[C@@H]2CC[C@H]([C@H](O)c3ccccc3)N2)cc1)N1CCC(Cn2ncccc2=O)CC1 [Example 148]
EC50: 10 to 99.9 nM

O=C(c1ccc(C[C@@H]2CC[C@H]([C@H](O)c3ccccc3)N2)cc1)N1CCC(Cn2cnccc2=O)CC1 [Example 149]
EC50: 100 to 999 nM

O=C(c1ccc(C[C@@H]2CC[C@H]([C@H](O)c3ccccc3)N2)cc1)N1CCC(Cn2cccnc2=O)CC1 [Example 150]
EC50: 100 to 999 nM

O=C(c1ccc(C[C@@H]2CC[C@H]([C@H](O)c3ccccc3)N2)cc1)N1CCC(Cn2ccncc2=O)CC1 [Example 151]
EC50: 10 to 99.9 nM

O=C(c1ccc(C[C@@H]2CC[C@H]([C@H](O)c3ccccc3)N2)cc1)N1CCC(Oc2ccccn2)CC1 [Example 152]
EC50: 10 to 99.9 nM
